# Reference: patent US7973069B2 (PTC Therapeutics, Inc., priority 2004, dated 2011)
# Legend:
# wild-type poliovirus = type: cell-based; conditions: HeLa cells infected with wild-type poliovirus at MOI 0.1, treated one day, CPE score; for WT-PV CPE (1 μM)*: 1 μM compound; for WT-PV CPE (10 μM)*: 10 μM compound; for WT-PV CPE (100 μM)*: 100 μM compound
# HCV replicon = type: cell-based
smiles,measurement,setting,value
"C[C@@H](OC(=O)Nc1ccc(-c2c(C#N)c3ccc(Oc4ncccn4)cc3n2C2CC2)cc1)C1CC1 [Compound 2217, (R)-{4-[3-cyano-1-cyclopropyl-6-(pyrimidin-2-yloxy)-1H-indol-2-yl]-phenyl}-carbamic acid 1-cyclopropylethyl ester]",melting point,,154 to 156 °C
"CCCS(=O)(=O)Nc1ccc(-c2c(C#N)c3ccc(OC(F)F)cc3n2CC)cc1 [Compound 928, Propane-1-sulfonic acid [4-(3-cyano-6-difluoromethoxy-1-ethyl-1H-indoel-2-yl)-phenyl]-amide]",melting point,,206 to 208 °C
CCn1cc(C#N)c2ccc(OC(C)C)cc21 [Compound 10],WT-PV CPE (1 μM)*,wild-type poliovirus,2
same,WT-PV CPE (10 μM)*,wild-type poliovirus,2
same,WT-PV CPE (100 μM)*,wild-type poliovirus,3
"C[C@@H](OC(=O)Nc1ccc(-c2c(C#N)c3ccc(-c4ncccn4)cc3n2C2CCC2)cc1)C1CC1 [Compound 2419, [4-(3-cyano-1-cyclobutyl-6-pyrimidin-2-yl-1H-indol-2-yl)-phenyl]-carbamic acid 1-cyclopropyl-ethyl ester]",melting point,,212 to 214 °C
CCn1c(-c2ccc(OC)cc2)c(C#N)c2ccc(OC)cc21 [Compound 19],WT-PV CPE (1 μM)*,wild-type poliovirus,1
same,WT-PV CPE (10 μM)*,wild-type poliovirus,2
same,WT-PV CPE (100 μM)*,wild-type poliovirus,3
COc1ccc(-n2cc(C#N)c3ccc(OC)cc32)cc1 [Compound 4],WT-PV CPE (1 μM)*,wild-type poliovirus,1
same,WT-PV CPE (10 μM)*,wild-type poliovirus,2
same,WT-PV CPE (100 μM)*,wild-type poliovirus,3
COc1ccc2c(C#N)c(C)n(-c3ccc4c(c3)OCO4)c2c1 [Compound 24],WT-PV CPE (1 μM)*,wild-type poliovirus,2
same,WT-PV CPE (10 μM)*,wild-type poliovirus,2
same,WT-PV CPE (100 μM)*,wild-type poliovirus,3
"CC(C)Nc1ccc(-c2c(C#N)c3ccc(Oc4ncccn4)cc3n2C2CC2)cc1 [Compound 2434, 1-cyclopropyl-2-(4-isopropylamino-phenyl)-6-(pyrimidin-2-yloxy)-1H-indole-3-carbonitrile]",melting point,,215 to 217 °C
"CC(C)OC(=O)Nc1ccc(-c2c(C#N)c3ccc(Oc4ncccn4)cc3n2C2CCC2)cc1Cl [Compound 2339, {2-chloro-4-[3-cyano-1-cyclobutyl-6-(pyrimidin-2-yloxy)-1H-indol-2-yl]-phenyl}-carbamic acid isopropyl ester]",melting point,,165 to 165.5 °C
CC(C)NS(=O)(=O)Nc1ccc(-c2c(C#N)c3ccc(Oc4ncccn4)cc3n2C2CCC2)cc1 [Compound 2263],melting point,,223 to 224 °C
"C[C@@H](OC(=O)Nc1ccc(-c2c(C#N)c3ccc(Oc4ncccn4)cc3n2C2CCC2)cc1)C1CC1 [Compound 2210, (R)-{4-[3-cyano-1-cyclobutyl-6-(pyrimidin-2-yloxy)-1H-indol-2-yl]-phenyl}carbamic acid 1-cyclopropyl-ethyl ester]",melting point,,194 to 196 °C
"C[C@@H](OC(=O)Nc1ccc(-c2c(C#N)c3ccc(-c4ccccn4)cc3n2C2CCC2)cc1)C1CC1 [Compound 2417, [4-(3-cyano-1-cyclobutyl-6-pyridin-2-yl-1H-indol-2-yl)-phenyl]-carbamic acid 1-cyclopropyl-ethyl ester]",melting point,,118 to 120 °C
N#Cc1c(-c2ccc(NS(=O)(=O)C3CC3)cc2)n(C2CCC2)c2cc(OCC3CCCO3)ccc12 (stereo not shown) [Compound 1280],IC50,HCV replicon,< 0.5 µM
CCn1c(-c2ccc(NC(=O)NC)cc2)c(C#N)c2ccc(OCCCN3CCOCC3)cc21 [Compound 1118],IC50,HCV replicon,0.5 to 2 µM
C=CCOC(=O)Nc1ccc(-c2c(C#N)c3cc(OC)ccc3n2C2CCC2)cc1 [Compound 1180],IC50,HCV replicon,0.5 to 2 µM
CCOc1ccc2c(C#N)c(-c3ccc(NC(=O)NC4CC4)cc3)n(C3CCC3)c2c1 [Compound 1191],IC50,HCV replicon,0.5 to 2 µM
C=CCOC(=O)Nc1ccc(-c2c(C#N)c3cc(OC)c(OC)cc3n2CC)cc1 [Compound 1111],IC50,HCV replicon,0.5 to 2 µM
CCCCNC(=O)Nc1ccc(-c2c(C#N)c3cc(OC)ccc3n2CCC)cc1 [Compound 1008],IC50,HCV replicon,0.5 to 2 µM
CCCOc1ccc2c(C#N)c(-c3ccc(NC(=O)NC4CC4)cc3)n(C(C)C)c2c1 [Compound 1325],IC50,HCV replicon,< 0.5 µM
CCOc1ccc2c(C#N)c(-c3ccc(NC(=O)OC4CCCC4)cc3)n(C(C)CC)c2c1 (stereo not shown) [Compound 1222],IC50,HCV replicon,0.5 to 2 µM
CC(C)NC(=O)Nc1ccc(-c2c(C#N)c3ccc(OCCNC4CC4)cc3n2C2CCC2)cc1 [Compound 1317],IC50,HCV replicon,< 0.5 µM
COc1ccc2c(C#N)c(-c3ccc(NC(=O)OC(C)C)cc3)n(C3CCC3)c2c1 [Compound 1076],IC50,HCV replicon,< 0.5 µM
CCn1c(-c2ccc(NS(=O)(=O)C3CC3)cc2)c(C#N)c2ccc(OC(F)(F)F)cc21 [Compound 883],IC50,HCV replicon,< 0.5 µM
CC(C)OC(=O)Nc1ccc(-c2c(C#N)c3ccc(OCCN4CCCC4)cc3n2C2CCC2)cc1 [Compound 1142],IC50,HCV replicon,< 0.5 µM
CCCOC(=O)Nc1ccc(-c2c(C#N)c3ccc(OCC)cc3n2C2CCC2)cc1 [Compound 972],IC50,HCV replicon,< 0.5 µM
CC(C)NC(=O)Nc1ccc(-c2c(C#N)c3ccc(OCCCN4CCN(C)CC4)cc3n2C2CCC2)cc1 [Compound 1307],IC50,HCV replicon,0.5 to 2 µM
CCCOc1ccc2c(C#N)c(-c3ccc(NC(=O)OC(C)C4CC4)cc3)n(C(C)C)c2c1 (stereo not shown) [Compound 1244],IC50,HCV replicon,< 0.5 µM
CCOC(=O)Nc1ccc(-c2c(C#N)c3ccc(OC)cc3n2CC)cc1C [Compound 964],IC50,HCV replicon,0.5 to 2 µM
N#Cc1cn(CC2CC2)c2cc(OC(F)F)ccc12 [Compound 940],IC50,HCV replicon,0.5 to 2 µM
